According to patent US20230338392A1, “SUBCUTANEOUS ADMINISTRATION OF AN ASBT INHIBITOR” (Albireo AB, priority 2022, published 2023):

How the values were obtained:
[1] = Plasma concentration following subcutaneous or intravenous administration; type: in vivo, male C57BL/6 mice
Method: Elobixibat was administered to male C57BL/6 mice (n=5) as a subcutaneous injection at a dose of 3 or 10 mg/kg or as an intravenous injection at a dose of 1 mg/kg (single injections), or as repeated subcutaneous injections at a dose of 1 mg/kg at day 1 and day 5. Elobixibat was formulated in 70% PEG400; 10% ethanol; and 20% water and given at a dosing volume of 5 mL/kg subcutaneously or 1 mL/kg intravenously. Blood samples were collected after 0.25, 0.5, 1, 2, 4, 6, 8 and 24 hours following subcutaneous administration and after 0.083, 0.25, 0.5, 1, 2, 4, 6, 8 and 24 hours following intravenous administration. Blood samples were taken from saphenous vein. 0.2% EDTA was used as the anticoagulant. The samples were analyzed by a discovery grade bioanalytical method developed for the estimation of elobixibat in plasma, using an LC-MS/MS system.
The results for single subcutaneous (3 or 10 mg/kg) and intravenous (1 mg/kg) administrations are shown in FIG. 1, and the results for repeated subcutaneous administrations (1 mg/kg at day 1 and day 5) are shown in FIG. 2.

[2] = test system: KIM-1 (kidney injury molecule-1); assay: DDC model: mRNA expression of renal proximal tubule cell injury marker KIM-1; type: in vivo, male C57BL/6J WT mice; conditions: DDC cholestatic mice, s.c. elobixibat versus vehicle, 14 days (FIG. 6)
Source text: (§1) Chronic feeding of 3,5-diethoxycarbonyl-1,4-dihydrocollidine (DDC) was used as an in vivo model for cholestatic liver injury. Chronic feeding of DDC produces an intraductal porphyrin plug which leads to ductular obstruction contributing to damage of biliary epithelia. The time course of the DDC model usually ranges from 1 to 6 weeks, depending on the severity of the cholangiopathy that the study requires. Chronic feeding of DDC in mice reproduces the main histopathological hallmarks of human cholestatic disease such as (1) remodeling of biliary compartments giving rise to ductular reaction, (2) periductular fibrosis, and (3) inflammatory infiltrate (Mariotti et al., Biochim Biophys Acta Mol Basis Dis 2018, vol. 1864, p. 1254-1261; Pose et al., Methods Mol. Biol. 2019, vol. 1981, p. 249-257).
(§2) Male C57BL/6J WT mice of 8 weeks old were used. After completion of quarantine and acclimatization period, animals were randomized based on body weight into experimental groups (n=7-9/group). Animals were fed chow (control diet) or chow plus 0.1% DDC (DDC diet) for 14 days, and treated once daily with vehicle (s.c.) or the ASBT inhibitor elobixibat at a dose of 0.3, 1.0 or 3.0 mg/kg (s.c.), as shown in Table 1. Animals were weighed at days 7, 11 and 14. Blood samples were collected at day 7. On day 11, animals were moved to individual cages with wire bottom for fecal collection. […]

LCN2 (lipocalin-2) = assay: DDC model: mRNA expression of renal proximal tubule cell injury marker LCN2; type: in vivo, male C57BL/6J WT mice; conditions: DDC cholestatic mice, s.c. elobixibat versus vehicle, 14 days (FIG. 7)
Source text: as §1, §2

DDC mice = assay: DDC in vivo model of cholestatic disease: serum chemistries; parameters: species or system male C57BL/6J WT mice
Source text: as §1
Male C57BL/6J WT mice of 8 weeks old were used. After completion of quarantine and acclimatization period, animals were randomized based on body weight into experimental groups (n=7-9/group). Animals were fed chow (control diet) or chow plus 0.1% DDC (DDC diet) for 14 days, and treated once daily with vehicle (s.c.) or the ASBT inhibitor elobixibat at a dose of 0.3, 1.0 or 3.0 mg/kg (s.c.), as shown in Table 1. Animals were weighed at days 7, 11 and 14. Blood samples were collected at day 7. On day 11, animals were moved to individual cages with wire bottom for fecal collection. Blood, urine, tissue samples and 3-day fecal samples were collected at day 14.
Endpoints measured at the end of the study include fecal bile acid excretion, urine and serum bile acid concentration and composition, and serum chemistries reflecting liver status.

[3] = subcutaneous administration (FIG. 1)

clearance ([1]; intravenous administration (FIG. 1)): quick clearance
bioavailability [1, 3]: high bioavailability
duration of constant exposure [1, 3]: more than 24 hours
Structure (SMILES): CCCCC1(CCCC)CN(c2ccccc2)c2cc(SC)c(OCC(=O)N[C@@H](C(=O)NCC(=O)O)c3ccccc3)cc2S(=O)(=O)C1 [elobixibat, 1,1-dioxo-3,3-dibutyl-5-phenyl-7-methylthio-8-(N-{(R)-1′-phenyl-1′-[N′-(carboxymethyl)-carbamoyl]methyl}carbamoylmethoxy)-2,3,4,5-tetrahydro-1,5-benzothiazepine]
mRNA expression for KIM-1 [2]: reduced
mRNA expression for LCN2 (LCN2 (lipocalin-2)): reduced
serum alkaline phosphatase (ALP) levels (DDC mice; s.c. once daily 0.3, 1.0 or 3.0 mg/kg for 14 days (FIG. 5)): dose-dependent trend towards reduced
serum bile acids (DDC mice; s.c. once daily 0.3, 1.0 or 3.0 mg/kg for 14 days, reduced at lowest dose, no additional reduction at higher doses (FIG. 3)): statistically significant reduction
serum total bilirubin (DDC mice; s.c. once daily 0.3, 1.0 or 3.0 mg/kg for 14 days, reduced at lowest dose, no additional reduction at higher doses (FIG. 4)): statistically significant reduction
